Laboratory results from US20170196834A1, “PREPARATION AND APPLICATION OF FLAVONOL AS BRAIN-TARGETING SYNERGIST” (GUANGDONG PHARMACEUTICAL UNIVERSITY, priority 2014, published 2017).
Where two headings read alike, the source gives them in different places.

What was measured:
[1] = test system: MCAO forebrain ischemia; assay: MCAO forebrain ischemia rats, improvement rate of cerebral infarction area (Example 4); format: in vivo; conditions: gavage, 7 days after administration
Experimental: In addition, 30 rats of MCAO forebrain ischemia were prepared, and they were administered solvent saline, 100 mg/kg LXN3, and resveratrol by gavage at 20 ml/kg, 10 rats per group; […]

[2] = Resveratrol in blood and brain tissues 0.5 h after intragastric administration, UPLC-MS (Example 4); format: in vivo; conditions: rat, oral, SD rats, 100 mg/kg resveratrol, 0.5 h after administration
Experimental: Treatment Group: LXN3 was made into suspension. 5 SD rats were administered the suspension at the dose of 100 mg/kg resveratrol and the volume of 20 ml/kg by intragastric administration;
Control group: Resveratrol was made into suspension. 5 SD rats were administered the suspension at the dose of 100 mg/kg resveratrol and the volume of 20 ml/kg by intragastric administration;
The rats were derw blood 0.5 h after administration and then sacrificed under anaesthesia. Brain tissues were taken to prepare brain homogenates. The content of resveratrol in the blood and brain tissues were detected by UPLC-MS.

concentration at 0.5 h ([2]; brain, read-out: Resveratrol content in brain tissues): 3.12 ± 1.29 ng/g
concentration at 0.5 h ([2]; plasma, read-out: Plasma concentration of resveratrol): 5580 ± 1280 ng/mL
SMILES: Oc1ccc(C=Cc2cc(O)cc(O)c2)cc1 [Resveratrol]
Improvement rate of cerebral infarction area [1]: 20.1 ± 8.6%
